Earlier results in patent US20030175883A1, “DNA encoding a mammalian LPA receptor and uses thereof” (priority 1997, published 2003).

Experiments:
[1] = tested on: LPA binding sites in membranes from 3T3 cells; details: Thomson et al., 1994
[2] = target: LPA binding sites in membranes from rat brain; details: Thomson et al., 1994

- Kd [2]: low nanomolar range
Substance: 1-acyl-glycerol-3-phosphate [LPA]
- Kd [1]: low nanomolar range
